# Assay results published in patent publication US8425840B2, “Microchip and blood monitoring device” (Fujimori Kogyo Co., Ltd., priority 2007, dated 2013).
# Test system: platelets
# Experiment: measurement of platelet function using the thrombus monitoring system C (microchip 4, citrated whole blood mixed with ADP under flow)
# Type: cell-based
# Conditions: for time after the beginning of the measurement at which an obvious platelet aggregate was formed in the thrombus formation chamber: collagen/PT reagent coated chamber
# Protocol: The stirring section 413 was in the shape of a circle having a diameter of […] and narrowing in fan-like fashion in the direction toward the downstream, and its depth was 1.2 mm. The stirring bar 417 was a stirring bar in the shape of a cylinder having a length of 2 mm and a diameter of 1 mm, whose surface was coated with nickel.
# As the thrombus-inducing agent, 24 μL of a mixture of collagen type I (Nitta Gelatin Inc.) and PT reagent (Sysmex Corporation) was applied in a square shape sizing 1 cm×1 cm, and dried under reduced pressure at −0.08 MPa for 3 hours. The coating with the thrombus-inducing material was carried out such that the merged channel 403 was not passing the center of the square area on which the thrombus-inducing material was applied, that is, such that the merged channel 403 was passing 2.5 mm away from an edge of the square, when the substrate 400 and the substrate 410 were bonded to each other. As the collagen type I, one having a concentration of 3 mg/ml was used. As the PT reagent, one prepared by dissolving 1 vial of PT reagent manufactured by Sysmex Corporation in 2 ml of purified water and dialyzing the resulting solution against purified water overnight, followed by mixing the resultant at a ratio of 1:1 was used.
# To the blood reservoir 433, the first pump 420 was connected, and the first connection nozzle 435 and the second connection nozzle 436 were connected to the second pump 421 and the third pump 422, respectively.
# Mineral oil was filled in the first pump 420; purified water and 1 μM or 2 μM ADP solution were filled in the second pump 421; and 0.5 M EDTA (pH 10) solution was filled in the third pump 422.
# Blood prepared by mixing the blood immediately after collection with 3.2% sodium citrate solution at a volume ratio between the blood and the sodium citrate solution being 9:1 was filled in the blood reservoir 433.
# The programs executed for the first pump 420, second pump 421 and the third pump 422 were the same with those in Example 7 (Table 3). […]
compound,measurement,setting,value
"Nc1ncnc2c1ncn2[C@@H]1O[C@H](COP(=O)(O)OP(=O)(O)O)[C@@H](O)[C@H]1O [ADP, adenosine diphosphate]",time after the beginning of the measurement at which an obvious platelet aggregate was formed in the thrombus formation chamber,1 μM ADP solution in second pump,15 min
same,increase in pressure due to platelet aggregate (pressure sensor),1 μM or 2 μM ADP in second pump,no increase in pressure occurred
same,time after the beginning of the measurement at which an obvious platelet aggregate was formed in the thrombus formation chamber,2 μM ADP solution in second pump,10 min
